Among the data in US11453666B2, “Autotaxin inhibitory compounds” (Cancer Research Technology Limited, priority 2015, dated 2022) are IC50 values, retold here.

In one assay the target is human recombinant ATX (Homo sapiens, UniProt Q13822). Briefly: Autotaxin (ATX) activity Quanta Red assay. The assay is classed as biochemical. The settings on record: Table 2: additional compounds tested for ATX activity (Quanta Red Assay); read-out: Activity. A digest of the protocol: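 Recombinant human ATX reaction stopped after 2 h with Quanta Red stop solution; fluorescence read at […]. Controls with DMSO, with and without ATX; IC50 in duplicate.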
Consider `O=C(CCc1nc2cccnc2n1Cc1ccccc1)NCc1ccc(Cl)cc1` [Example 217, 3-(3-Benzyl-3H-imidazo[4,5-b]pyridin-2-yl)-N-(4-chloro-benzyl)-propionamide], for which the IC50 was 29 nM.
The same measure, in the same setting: the figure for `COc1ccc(Cn2c(CCC(=O)NCc3ccc(Cl)cc3)nc3cccnc32)cc1` [Example 218, N-(4-Chloro-benzyl)-3-[3-(4-methoxy-benzyl)-3H-imidazo[4,5-b]pyridin-2-yl]-propionamide] is 23 nM; for `COc1ccc(Cn2c(CCC(=O)NCc3ccc(F)cc3)nc3cccnc32)cc1` [Example 219, N-(4-Fluoro-benzyl)-3-[3-(4-methoxy-benzyl)-3H-imidazo[4,5-b]pyridin-2-yl]-propionamide] it is 89 nM; for `COc1ccc(Cn2c(CCC(=O)NCc3ccc(C)cc3)nc3cccnc32)cc1` [Example 220, 3-[3-(4-Methoxy-benzyl)-3H-imidazo[4,5-b]pyridin-2-yl]-N-(4-methyl-benzyl)-propionamide] it is 125 nM.
On the same count and under the same terms, under `COc1ccc(Cn2c(CCC(=O)NCCc3ccc(SC)cc3)nc3cccnc32)cc1` [Example 221, 3-[3-(4-Methoxy-benzyl)-3H-imidazo[4,5-b]pyridin-2-yl]-N-[2-(4-methylsulfanyl-phenyl)-ethyl]-propionamide] stands 154 nM.
Same read-out and setting: under `COc1ccc(CNC(=O)CCc2nc3cccnc3n2Cc2ccc(OC)cc2)cc1` [Example 222, N-(4-Methoxy-benzyl)-3-[3-(4-methoxy-benzyl)-3H-imidazo[4,5-b]pyridin-2-yl]-propionamide] stands 193 nM; under `O=C(CCc1nc2cccnc2n1Cc1ccccc1)NCc1ccc(F)cc1` [Example 223, 3-(3-Benzyl-3H-imidazo[4,5-b]pyridin-2-yl)-N-(4-fluoro-benzyl)-propionamide], 324 nM; under `O=C(CCc1nc2cccnc2n1Cc1cccs1)NCc1ccc(F)cc1` [Example 224, N-(4-Fluoro-benzyl)-3-(3-thiophen-2-ylmethyl-3H-imidazo[4,5-b]pyridin-2-yl)-propionamide], 685 nM.
Consider `CCOc1ccc(CCNC(=O)CCc2nc3cccnc3n2Cc2ccccc2)cc1` [Example 225, 3-(3-Benzyl-3H-imidazo[4,5-b]pyridin-2-yl)-N-[2-(4-ethoxy-phenyl)-ethyl]-propionamide], for which the IC50 is 708 nM.
In the case of `O=C(CCc1nc2cccnc2n1Cc1cccs1)NCc1ccccc1` [Example 226, N-Benzyl-3-(3-thiophen-2-ylmethyl-3H-imidazo[4,5-b]pyridin-2-yl)-propionamide], the IC50 worked out at 807 nM.
The same measure, in the same setting: under `COc1ccc(Cn2c(CCC(=O)Nc3ccc(F)cc3)nc3cccnc32)cc1` [Example 227, N-(4-Fluoro-phenyl)-3-[3-(4-methoxy-benzyl)-3H-imidazo[4,5-b]pyridin-2-yl]-propionamide] stands 3830 nM; under `CCCCNC(=O)CCc1nc2cccnc2n1Cc1ccccc1` [Example 228, 3-(3-Benzyl-3H-imidazo[4,5-b]pyridin-2-yl)-N-butyl-propionamide], 8810 nM; under `COc1ccc(Cn2c(CCC(=O)NCCc3cccc(C)c3)nc3cccnc32)cc1` [Example 229, 3-[3-(4-Methoxy-benzyl)-3H-imidazo[4,5-b]pyridin-2-yl]-N-(2-m-tolyl-ethyl)-propionamide], 466 nM.
On the same count and under the same terms, under `CSc1ccc(CCNC(=O)CCc2nc3cccnc3n2Cc2ccccc2)cc1` [Example 230, 3-(3-Benzyl-3H-imidazo[4,5-b]pyridin-2-yl)-N-[2-(4-methylsulfanyl-phenyl)-ethyl]-propionamide] stands 688 nM.
Same read-out and setting: the figure for `COc1ccc(Cn2c(CCC(=O)NCc3cccc(Cl)c3)nc3cccnc32)cc1` [Example 231, N-(3-Chloro-benzyl)-3-[3-(4-methoxy-benzyl)-3H-imidazo[4,5-b]pyridin-2-yl]-propionamide] is 200 nM; for `O=C(CCc1nc2cccnc2n1Cc1ccccc1)NCc1cccc(Cl)c1` [Example 232, 3-(3-Benzyl-3H-imidazo[4,5-b]pyridin-2-yl)-N-(3-chloro-benzyl)-propionamide] it is 596 nM.
As for `COc1ccc(Cn2c(CCC(=O)NCc3ccc4c(c3)OCO4)nc3cccnc32)cc1` [Example 234, N-Benzo[1,3]dioxol-5-ylmethyl-3-[3-(4-methoxy-benzyl)-3H-imidazo[4,5-b]pyridin-2-yl]-propionamide], the IC50 stood at 720 nM.
With `Cc1ccc(CNC(=O)CCc2nc3cccnc3n2Cc2ccccc2)cc1` [Example 235, 3-(3-Benzyl-3H-imidazo[4,5-b]pyridin-2-yl)-N-(4-methyl-benzyl)-propionamide], the IC50 was 627 nM.

The same assay, now with this note: Table 3: commercially available compounds tested for Autotaxin activity (Quanta Red assay); read-out: Activity.
Consider `COc1ccc(Cn2c(CCC(=O)NCc3ccccc3)nc3cccnc32)cc1` [Example 236, N-Benzyl-3-[3-(4-methoxy-benzyl)-3H-imidazo[4,5-b]pyridin-2-yl]-propionamide, reference compound], for which the IC50 came out at 406 nM.
`COc1ccc(Cn2c(CCC(=O)NCCc3ccccc3)nc3cccnc32)cc1` [Example 237, 3-[3-(4-Methoxy-benzyl)-3H-imidazo[4,5-b]pyridin-2-yl]-N-phenethyl-propionamide, reference compound]: the IC50 worked out at 227 nM.
On the same count and under the same terms, the figure for `COc1ccc(CNC(=O)CCc2nc3cccnc3n2Cc2ccccc2)cc1` [Example 238, 3-(3-Benzyl-3H-imidazo[4,5-b]pyridin-2-yl)-N-(4-methoxy-benzyl)-propionamide, reference compound] is 473 nM.

Still in this assay, the particulars now being: read-out: Activity (ATX activity, Quanta Red assay; IC50).
As to `O=C(CCc1nc2cccnc2n1Cc1ccc(OC(F)(F)F)cc1)N[C@H](CO)Cc1ccc(O)cc1` [Example 205, N-[(S)-1-Hydroxymethyl-2-(4-hydroxy-phenyl)-ethyl]-3-[3-(4-trifluoromethoxy-benzyl)-3H-imidazo[4,5-b]pyridin-2-yl]-propionamide], the IC50 was determined as 188 nM.
Same read-out and setting: under `C[C@H](NC(=O)CCc1nc2cccnc2n1Cc1ccc(F)c(F)c1)c1ccc(CN2CCOCC2)cc1` [Example 206, 3-[3-(3,4-difluoro-benzyl)-3H-imidazo[4,5-b]pyridin-2-yl]-N—[(S)-1-(4-morpholin-4-ylmethyl-phenyl)-ethyl]-propionamide] stands 3 nM; under `CCN(CC)Cc1ccc([C@H](C)NC(=O)CCc2nc3cccnc3n2Cc2ccc(F)c(F)c2)cc1` [Example 207, N-[(S)-1-(4-Diethylaminomethyl-phenyl)-ethyl]-3-[3-(3,4-difluoro-benzyl)-3H-imidazo[4,5-b]pyridin-2-yl]-propionamide], 25 nM.
The same measure, in the same setting: the figure for `C[C@H](NC(=O)CCc1nc2cccnc2n1Cc1ccc(F)c(F)c1)c1ccc(CN(C)C)cc1` [Example 208, 3-[3-(3,4-Difluoro-benzyl)-3H-imidazo[4,5-b]pyridin-2-yl]-N-[(S)-1-(4-dimethylaminomethyl-phenyl)-ethyl]-propionamide] is 80 nM; for `O=C(CCc1nc2cccnc2n1Cc1ccc(OC(F)(F)F)cc1)N[C@@H](CS)c1ccccc1` [Example 209, N—((R)-2-mercapto-1-phenyl-ethyl)-3-[3-(4-trifluoromethoxy-benzyl)-3H-imidazo[4,5-b]pyridin-2-yl]-propionamide] it is 3 nM.
Same read-out and setting: the figure for `NC[C@H](NC(=O)CCc1nc2cccnc2n1Cc1ccc(OC(F)(F)F)cc1)c1ccccc1` [Example 210, N—((R)-2-amino-1-phenyl-ethyl)-3-[3-(4-trifluoromethoxy-benzyl)-3H-imidazo[4,5-b]pyridin-2-yl]-propionamide] is 3 nM.
Consider `Cc1cnc2c(c1)nc(CCC(=O)N[C@@H](C)c1ccc(Cl)cc1)n2Cc1ccc(OC(F)(F)F)cc1` [Example 211, N—[(S)-1-(4-chloro-phenyl)-ethyl]-3-[6-methyl-3-(4-trifluoromethoxy-benzyl)-3H-imidazo[4,5-b]pyridin-2-yl]-propionamide], for which the IC50 was determined as 7 nM.
The same measure, in the same setting: under `COc1ccc([C@H](C)NC(=O)CCc2nc3cc(C)cnc3n2Cc2ccc(OC(F)(F)F)cc2)cc1` [Example 212, N-[(S)-1-(4-Methoxy-phenyl)-ethyl]-3-[6-methyl-3-(4-trifluoromethoxy-benzyl)-3H-imidazo[4,5-b]pyridin-2-yl]-propionamide] stands 7 nM; under `Cc1cnc2c(c1)nc(CCC(=O)N[C@@H](C)c1ccc(Cl)cc1)n2Cc1ccc(F)cc1` [Example 213, N-[(S)-1-(4-Chloro-phenyl)-ethyl]-3-[3-(4-fluoro-benzyl)-6-methyl-3H-imidazo[4,5-b]pyridin-2-yl]-propionamide], 17 nM; under `CS(=O)(=O)N1CCC(CNC(=O)CCc2nc3cccnc3n2Cc2ccc(OC(F)(F)F)cc2)CC1` [Example 214, N-(1-methanesulfonyl-piperidin-4-ylmethyl)-3-[3-(4-trifluoromethoxy-benzyl)-3H-imidazo[4,5-b]pyridin-2-yl]-propionamide], 30 nM.
In the case of `O=C(CCc1nc2cccnc2n1Cc1ccc(OC(F)(F)F)cc1)NCC1CCN(C(=O)C2CC2)CC1` [Example 215, N-(1-Cyclopropanecarbonyl-piperidin-4-ylmethyl)-3-[3-(4-trifluoromethoxy-benzyl)-3H-imidazo[4,5-b]pyridin-2-yl]-propionamide], the IC50 worked out at 81 nM.
As to `CC(=O)N1CCC(CNC(=O)CCc2nc3cccnc3n2Cc2ccc(OC(F)(F)F)cc2)CC1` [Example 216, N-(1-Acetyl-piperidin-4-ylmethyl)-3-[3-(4-trifluoromethoxy-benzyl)-3H-imidazo[4,5-b]pyridin-2-yl]-propionamide], the IC50 was 495 nM.
